How the values were obtained:
A549 cells = test: Annexin V-FITC/PI flow cytometry-based apoptosis detection; details: A549, 24 h; for percentage of A549 cells undergoing apoptosis (early and late): sum of early and late
Akt = Akt Colorimetric In-Cell ELISA in A549 cells; assay type: cell-based, human; details: 24 h, mean ± SD, read-out: Akt inhibition IC50 in A549 cells
Description: The assay was performed in triplicate. IC50 data (µM) were expressed as mean ± SD.

[1] = tested on: A549 human lung adenocarcinoma cells; test: MTT cytotoxicity assay, A549 cells; assay type: cell-based; details: mean ± SD
Description: (§1) A549 human lung adenocarcinoma and L929 mouse fibroblast cell lines were obtained from American Type Culture Collection (ATCC) (Manassas, VA, USA). Both cell lines were cultured, and drug treatments were carried out as previously reported.
(§2) MTT assay was conducted as previously explained in the literature with small modifications. Cisplatin was used as a positive control. The assay was performed in triplicate. IC50 data (µM) were expressed as mean ± SD.

nitric oxide (NO) = test: LPS-induced sepsis model, serum NO levels; assay type: in vivo, Sprague Dawley rats; details: rat serum, 24 h after LPS; 3b, 4a 10 mg/kg/day, indomethacin 5 mg/kg by gastric intubation six days; n = 8
Description: (§3) Male albino Sprague Dawley rats (~250–300 g) were procured from the Medical and Surgical Experimental Animals Application and Research Center of Eskisehir Osmangazi University (ESOGU). In the animal house, the rats were housed in stainless steel cages under standard atmospheric conditions at 22 ± 1 °C and exposed to 12 h/12 h light/dark cycle. Food and water were given ad libitum. All experiments and protocols reported in this work were approved by ESOGU Animal Experiments Local Ethics Committee (10 December 2018/700).
(§4) Compounds 3b, 4a, and indomethacin (Sigma-Aldrich, St. Louis, MO, USA) were dissolved in 5% dimethyl sulfoxide (DMSO) and then diluted. The final DMSO concentration in the solution was 0.5% (v/v). The agents were administered by gastric intubation.
(§5) Rats were randomly divided into five groups (n = 8) as control group, LPS group, test groups (3b and 4a), and reference group. 0.5% DMSO was used as control solution for LPS group. Indomethacin (5 mg/kg) was used as a reference agent. Control group (Group I) was fed with basal rat chow throughout the experimental period. LPS group (Group II) was fed with basal rat chow for six days (only 0.5% DMSO was administered by gastric intubation) and LPS was injected intraperitoneally in 0.9% sodium chloride solution only once on the 7th day. Groups III, IV, and V were fed with basal rat chow and compound 3b (10 mg/kg/day), compound 4a (10 mg/kg/day), and indomethacin were administered, respectively, by gastric intubation for six days. Then, LPS was injected intraperitoneally in 0.9% sodium chloride solution only once on the 7th day for three groups as well. After 24 h of LPS injection, all rats were sacrificed by ketamine (80 mg/kg) ve xylazine (10 mg/kg) anesthesia via intraperitoneal route. Blood samples were collected via cardiac puncture in tubes containing gel for obtaining serum.
Nitrate and nitrite, which represent the best index of the entire NO production, are the stable end products of NO in vivo. Nitrate in serum was assayed by a slight modification of the Cd-reduction method as reported by Cortas and Wakid.

[2] = LPS-induced sepsis model, serum ALT and AST levels; assay type: in vivo, Sprague Dawley rats; details: rat serum, 24 h after LPS; 3b, 4a 10 mg/kg/day, indomethacin 5 mg/kg by gastric intubation six days; mean ± SD, n = 8
Description: as §3, §4, §5
Serum ALT and AST levels were determined using enzyme-based Roche Diagnostics kit in Roche Modular Systems analyzer by photometric assay based on the manufacturer’s instructions. The other serum samples were stored at −80 °C (Thermo Electron, Waltham, MA, USA) for subsequent analyses of MPO and NO levels.

COX-2 [3] = target: T1, COX-2 (Ovis aries, UniProt P79208); test: COX (ovine) colorimetric inhibitor screening assay, COX-2; assay type: biochemical; details: ovine COX-2, colorimetric, triplicate, mean ± SD
T1 construct: purchased Cayman
T1 sequence (P79208 17-603): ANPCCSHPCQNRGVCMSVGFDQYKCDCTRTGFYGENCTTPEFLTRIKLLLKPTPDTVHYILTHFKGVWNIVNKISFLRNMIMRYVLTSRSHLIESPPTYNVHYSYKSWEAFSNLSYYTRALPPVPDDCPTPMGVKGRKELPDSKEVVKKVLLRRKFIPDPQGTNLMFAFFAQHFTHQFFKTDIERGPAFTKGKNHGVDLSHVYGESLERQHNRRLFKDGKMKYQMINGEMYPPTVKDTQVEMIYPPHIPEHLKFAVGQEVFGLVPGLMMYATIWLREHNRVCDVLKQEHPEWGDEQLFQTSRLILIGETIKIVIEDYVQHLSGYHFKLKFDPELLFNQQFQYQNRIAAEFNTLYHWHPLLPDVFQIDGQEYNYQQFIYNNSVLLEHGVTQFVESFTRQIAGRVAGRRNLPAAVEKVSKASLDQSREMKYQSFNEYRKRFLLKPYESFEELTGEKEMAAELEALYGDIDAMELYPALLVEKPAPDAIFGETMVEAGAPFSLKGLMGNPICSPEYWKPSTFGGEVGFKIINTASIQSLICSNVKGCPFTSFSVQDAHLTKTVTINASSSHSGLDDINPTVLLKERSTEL
Description: (§6) COX (ovine) Colorimetric Inhibitor Screening Assay (Cayman, Ann Arbor, MI, USA) was conducted to detect the peroxidase component of COX-1 and COX-2 according to the manufacturer’s instructions. The assay was performed in triplicate. Half maximal inhibitory concentration (IC50) data (µM) were expressed as mean ± SD.

COX-1 [4] = target: T2, COX-1 (Ovis aries, UniProt P05979); test: COX (ovine) colorimetric inhibitor screening assay, COX-1; assay type: biochemical; details: for IC50: ovine COX-1, colorimetric, triplicate, mean ± SD; for SI (IC50 for COX-1/IC50 for COX-2): selectivity index
T2 construct: purchased Cayman
T2 sequence (P05979 25-600): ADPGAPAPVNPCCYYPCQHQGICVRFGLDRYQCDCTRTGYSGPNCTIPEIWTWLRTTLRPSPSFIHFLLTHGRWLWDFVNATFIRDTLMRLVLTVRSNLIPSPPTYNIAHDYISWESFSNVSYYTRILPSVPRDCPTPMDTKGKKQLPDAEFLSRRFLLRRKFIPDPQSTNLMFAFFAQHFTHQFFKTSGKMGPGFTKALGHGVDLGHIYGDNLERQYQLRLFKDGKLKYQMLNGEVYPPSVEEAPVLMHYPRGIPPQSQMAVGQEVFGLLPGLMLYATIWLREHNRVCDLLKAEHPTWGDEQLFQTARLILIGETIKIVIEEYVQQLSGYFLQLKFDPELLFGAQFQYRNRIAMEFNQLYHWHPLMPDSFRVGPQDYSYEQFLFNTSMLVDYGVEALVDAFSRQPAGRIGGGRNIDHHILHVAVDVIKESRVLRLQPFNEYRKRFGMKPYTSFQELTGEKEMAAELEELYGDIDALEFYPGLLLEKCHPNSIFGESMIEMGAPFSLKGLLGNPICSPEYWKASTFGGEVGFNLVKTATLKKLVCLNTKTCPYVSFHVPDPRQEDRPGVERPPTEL
Description: as §6

[5] = tested on: L929 mouse fibroblast (normal) cells; test: MTT cytotoxicity assay, L929 normal cells; assay type: cell-based; details: for IC50: MTT, L929 mouse fibroblast cells, mean ± SD; for cytotoxicity against L929 cells at effective concentrations: in words, at concentrations effective for COX-1 inhibition
Description: as §1, §2

myeloperoxidase (MPO) = test: LPS-induced sepsis model, serum MPO levels; assay type: in vivo, Sprague Dawley rats; details: for change of MPO activity compared to the LPS group: in words, LPS-induced sepsis, rats; for MPO (U/L): rat serum, 24 h after LPS 1 mg/kg i.p., 3b, 4a 10 mg/kg/day, indomethacin 5 mg/kg by gastric intubation for six days, mean ± SD, n = 8
Description: as §3, §4, §5
Suzuki’s assay was performed with slight modifications. The rate of MPO-catalyzed oxidation of 3,3′,5,5′-tetramethylbenzidine (TMB) was followed by recording the absorbance increase at 655 nm for 5 min. Taking into account the linear phase of the reaction, the absorbance change was measured per minute. The enzyme activity was expressed as the amount of the enzyme producing one absorbance change per minute under assay conditions.

COX-1 [6] = details: cited from earlier work
COX-2 [7] = details: cited from earlier work

N.N.[Cl][Pt][Cl] [Cisplatin, reference compound]
Early Apoptosis (%) (A549 cells; compound at IC50): 2.43%
Late Apoptosis (%) (A549 cells; compound at IC50): 2.03%
Necrosis (%) (A549 cells; compound at IC50): 2.34%
Early Apoptosis (%) (A549 cells; compound at IC50/2): 3.69%
Late Apoptosis (%) (A549 cells; compound at IC50/2): 2.88%
Necrosis (%) (A549 cells; compound at IC50/2): 0.72%
percentage of A549 cells undergoing apoptosis (early and late) (A549 cells; compound at IC50/2): 6.57%
percentage of A549 cells undergoing apoptosis (early and late) (A549 cells; compound at IC50): 4.46%
IC50 (Akt): 9.3 ± 2.55 µM
IC50 [1]: 22.7 ± 4.04 µM

O=C(Cc1c[nH]c2ccccc12)NN=Cc1ccc(N2CCOCC2)cc1 [Compound 3b, 2-(1H-Indol-3-yl)-N′-(4-morpholinobenzylidene)acetohydrazide]
NO level, 25% Percentile (nitric oxide (NO)): 0.316 µmol/L
NO level, 75% Percentile (nitric oxide (NO)): 2.772 µmol/L
NO level, Median (nitric oxide (NO)): 0.667 µmol/L
Early Apoptosis (%) (A549 cells; compound at IC50): 6.84%
Late Apoptosis (%) (A549 cells; compound at IC50): 6.01%
Necrosis (%) (A549 cells; compound at IC50): 0.48%
Early Apoptosis (%) (A549 cells; compound at IC50/2): 5.89%
Late Apoptosis (%) (A549 cells; compound at IC50/2): 5.78%
Necrosis (%) (A549 cells; compound at IC50/2): 0.36%
percentage of A549 cells undergoing apoptosis (early and late) (A549 cells; compound at IC50/2): 11.67%
percentage of A549 cells undergoing apoptosis (early and late) (A549 cells; compound at IC50): 12.85%
ALT (U/L) [2]: 50.25 ± 21.86 U/L
AST (U/L) [2]: 114.90 ± 22.04 U/L
IC50 (COX-2 [3]): 71 ± 1.41 µM
IC50 (COX-1 [4]): 8.9 ± 0.14 µM
SI (IC50 for COX-1/IC50 for COX-2) (COX-1 [4]): 0.13
IC50 [5]: 177 ± 5.77 µM
cytotoxicity against L929 cells at effective concentrations [5]: did not show cytotoxicity
IC50 (Akt): 32.5 ± 4.95 µM
melting point: 306 to 307 °C
IC50 ([1]; Homo sapiens): 89.7 ± 10.8 µM
change of MPO activity compared to the LPS group (myeloperoxidase (MPO)): slightly decreased
MPO (U/L) (myeloperoxidase (MPO)): 1.50 ± 0.81 U/L

O=[N+]([O-])c1ccc(Oc2ccc(C=NNC(=S)Nc3ccc(S(=O)(=O)N4CCCCC4)cc3)cc2)cc1 [4-[4-(piperidin-1-ylsulfonyl)phenyl]-1-[4-(4-nitrophenoxy)benzylidene]thiosemicarbazide]
IC50 (COX-1 [6]): 13.4 µM
IC50 (COX-2 [7]): 12.6 µM

N#Cc1ccc(Oc2ccc(C=NNC(=S)Nc3ccc(S(=O)(=O)N4CCCCC4)cc3)cc2)cc1 [4-[4-(piperidin-1-ylsulfonyl)phenyl]-1-[4-(4-cyanophenoxy)benzylidene]thiosemicarbazide]
IC50 (COX-1 [6]): 1.89 µM

COc1ccc2[nH]cc(C=CC(=O)c3ccc(S(C)(=O)=O)cc3)c2c1 [3-(5-methoxy-1H-indol-3-yl)-1-(4-(methylsulfonyl)phenyl)prop-2-en-1-one]
COX-1 IC50 (COX-1 [6]): 8.60 µg/mL

N#Cc1ccc(C(=O)C=Cc2c[nH]c3ccc(Br)cc23)cc1 [3-(5-bromo-1H-indol-3-yl)-1-(4-cyanophenyl)prop-2-en-1-one]
COX-1 IC50 (COX-1 [6]): 8.10 µg/mL
COX-2 IC50 (COX-2 [7]): 9.50 µg/mL

O=C(Cc1c[nH]c2ccccc12)NNC(=S)Nc1ccc(Br)cc1 [Compound 4a, 4-(4-Bromophenyl)-1-[2-(1H-indol-3-yl)acetyl]thiosemicarbazide]
NO level, 25% Percentile (nitric oxide (NO)): 1.369 µmol/L
NO level, 75% Percentile (nitric oxide (NO)): 4.0 µmol/L
NO level, Median (nitric oxide (NO)): 2.509 µmol/L
Early Apoptosis (%) (A549 cells; compound at IC50/2): 7.07%
Late Apoptosis (%) (A549 cells; compound at IC50/2): 6.62%
Necrosis (%) (A549 cells; compound at IC50/2): 0.60%
Early Apoptosis (%) (A549 cells; compound at IC50/4): 7.34%
Late Apoptosis (%) (A549 cells; compound at IC50/4): 5.19%
Necrosis (%) (A549 cells; compound at IC50/4): 0.37%
ALT (U/L) [2]: 48.29 ± 26.88 U/L
AST (U/L) [2]: 132.30 ± 37.06 U/L
IC50 (COX-2 [3]): 76.5 ± 6.36 µM
IC50 (COX-1 [4]): 10 ± 0.13 µM
SI (IC50 for COX-1/IC50 for COX-2) (COX-1 [4]): 0.13
IC50 [5]: 84 ± 19.7 µM
cytotoxicity against L929 cells at effective concentrations [5]: did not show cytotoxicity
IC50 (Akt): 45.3 ± 6.51 µM
melting point: 187 to 189 °C
IC50 ([1]; Homo sapiens): 179 ± 77.6 µM
change of MPO activity compared to the LPS group (myeloperoxidase (MPO)): significantly decreased
MPO (U/L) (myeloperoxidase (MPO)): 0.84 ± 0.26 U/L

COc1ccc2c(c1)c(CC(=O)O)c(C)n2C(=O)c1ccc(Cl)cc1 [Indomethacin, reference compound]
NO level, 25% Percentile (nitric oxide (NO)): 0.667 µmol/L
NO level, 75% Percentile (nitric oxide (NO)): 3.123 µmol/L
NO level, Median (nitric oxide (NO)): 1.281 µmol/L
ALT (U/L) [2]: 44.00 ± 14.64 U/L
AST (U/L) [2]: 123.50 ± 32.14 U/L
MPO (U/L) (myeloperoxidase (MPO)): 1.06 ± 0.73 U/L

From PMC9916685, “Discovery of Small Molecule COX-1 and Akt Inhibitors as Anti-NSCLC Agents Endowed with Anti-Inflammatory Action” (International Journal of Molecular Sciences, 2023)
